Laboratory results published in paper PMC7313537 (PLoS ONE, 2020).
Read-outs that look alike come from different tables or passages of the source.

How the values were obtained:
BRAF = BRAF (Homo sapiens, UniProt P15056); test: Enzyme selectivity panel; format: biochemical; conditions: 1 mM ATP
Description: (§3) The kinase assays were carried out at room temperature in HEPES 50 mM, pH 7.0, NaN3 0.02%, BSA 0.01%, Orthovanadate 0.1 mM, DTT 1 mM, MgCl2 10 mM in a final volume of 10 µL. Test compounds were transferred to the plate wells by ECHO liquid handler (Labcyte, San Jose, CA) with 0.5% dimethyl sulfoxide (DMSO) in the final assay. Peptide/kinase mixtures were diluted in the appropriate enzymatic buffer and 5µL of the mixture was added to a 384-well small volume black plate. Reactions were initiated by the addition of 5 µL ATP in reaction buffer, the final reaction mixture consisted of 500 nM peptide substrate, 1 mM ATP, and appropriate amount of specific kinase. […] The plates were then sealed and centrifuged at 1800 rpm for 2 minutes. […] Half maximal inhibitory concentration (IC50) determination was performed by fitting the curve of percent control activity versus the log of the compound concentration using the GraphPad Prism 6.0 software.

DYRK2 = DYRK2 (Homo sapiens, UniProt Q92630); test: Enzyme selectivity panel; format: biochemical; conditions: 1 mM ATP
Description: as §3

HIPK3 = HIPK3 (Homo sapiens, UniProt Q9H422); test: Enzyme selectivity panel; format: biochemical; conditions: 1 mM ATP
Description: as §3

LOK = LOK (Homo sapiens, UniProt O94804); test: Enzyme selectivity panel; format: biochemical; conditions: 1 mM ATP
Description: as §3

NLK = NLK (Homo sapiens, UniProt Q9UBE8); test: Enzyme selectivity panel; format: biochemical; conditions: 1 mM ATP
Description: as §3

PAK4 = PAK4 (Homo sapiens, UniProt O96013); test: Enzyme selectivity panel; format: biochemical; conditions: 1 mM ATP
Chain of PAK4 (O96013 whole entry, species assumed): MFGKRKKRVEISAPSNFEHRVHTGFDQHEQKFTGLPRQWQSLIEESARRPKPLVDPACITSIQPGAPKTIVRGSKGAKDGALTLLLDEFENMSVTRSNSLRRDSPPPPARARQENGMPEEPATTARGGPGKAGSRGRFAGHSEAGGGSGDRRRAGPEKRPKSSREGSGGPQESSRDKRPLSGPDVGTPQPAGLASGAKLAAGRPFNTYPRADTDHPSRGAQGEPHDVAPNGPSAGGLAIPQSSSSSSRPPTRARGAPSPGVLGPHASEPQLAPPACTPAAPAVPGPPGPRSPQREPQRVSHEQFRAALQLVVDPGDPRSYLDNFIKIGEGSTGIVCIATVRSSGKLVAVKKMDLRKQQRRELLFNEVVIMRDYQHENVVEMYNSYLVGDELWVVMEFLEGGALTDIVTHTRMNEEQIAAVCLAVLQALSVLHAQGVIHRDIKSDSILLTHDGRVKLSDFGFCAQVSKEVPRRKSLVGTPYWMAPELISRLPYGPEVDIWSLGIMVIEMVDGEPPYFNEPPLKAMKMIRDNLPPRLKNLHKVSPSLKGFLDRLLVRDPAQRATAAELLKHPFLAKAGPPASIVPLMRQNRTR
Description: as §3

PDGFR BETA = target: T1, PDGFR BETA (Homo sapiens, UniProt P09619); test: Enzyme selectivity panel; format: biochemical; conditions: 1 mM ATP
T1 construct: purchased In-house HTRF panel (56 kinases) and PerkinElmer (161-kinase panel)
Description: as §3

PIM2 = target: T2, PIM2 (Homo sapiens, UniProt Q9P1W9); test: Enzyme selectivity panel; format: biochemical; conditions: 1 mM ATP
T2 construct: purchased In-house HTRF panel (56 kinases) and PerkinElmer (161-kinase panel)
T2 sequence (Q9P1W9 whole entry, species assumed): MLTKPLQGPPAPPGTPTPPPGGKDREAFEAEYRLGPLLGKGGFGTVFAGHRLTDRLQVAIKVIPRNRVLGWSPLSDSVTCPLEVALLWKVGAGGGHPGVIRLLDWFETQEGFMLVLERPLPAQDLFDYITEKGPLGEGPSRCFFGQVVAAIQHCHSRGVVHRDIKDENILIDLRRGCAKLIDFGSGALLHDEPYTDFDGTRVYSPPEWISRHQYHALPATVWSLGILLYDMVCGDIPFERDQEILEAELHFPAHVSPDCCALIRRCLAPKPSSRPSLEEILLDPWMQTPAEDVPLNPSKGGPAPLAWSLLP
Description: as §3

RSK2 = RSK2 (Homo sapiens, UniProt P51812); test: Enzyme selectivity panel; format: biochemical; conditions: 1 mM ATP
Chain of RSK2 (P51812 whole entry, species assumed): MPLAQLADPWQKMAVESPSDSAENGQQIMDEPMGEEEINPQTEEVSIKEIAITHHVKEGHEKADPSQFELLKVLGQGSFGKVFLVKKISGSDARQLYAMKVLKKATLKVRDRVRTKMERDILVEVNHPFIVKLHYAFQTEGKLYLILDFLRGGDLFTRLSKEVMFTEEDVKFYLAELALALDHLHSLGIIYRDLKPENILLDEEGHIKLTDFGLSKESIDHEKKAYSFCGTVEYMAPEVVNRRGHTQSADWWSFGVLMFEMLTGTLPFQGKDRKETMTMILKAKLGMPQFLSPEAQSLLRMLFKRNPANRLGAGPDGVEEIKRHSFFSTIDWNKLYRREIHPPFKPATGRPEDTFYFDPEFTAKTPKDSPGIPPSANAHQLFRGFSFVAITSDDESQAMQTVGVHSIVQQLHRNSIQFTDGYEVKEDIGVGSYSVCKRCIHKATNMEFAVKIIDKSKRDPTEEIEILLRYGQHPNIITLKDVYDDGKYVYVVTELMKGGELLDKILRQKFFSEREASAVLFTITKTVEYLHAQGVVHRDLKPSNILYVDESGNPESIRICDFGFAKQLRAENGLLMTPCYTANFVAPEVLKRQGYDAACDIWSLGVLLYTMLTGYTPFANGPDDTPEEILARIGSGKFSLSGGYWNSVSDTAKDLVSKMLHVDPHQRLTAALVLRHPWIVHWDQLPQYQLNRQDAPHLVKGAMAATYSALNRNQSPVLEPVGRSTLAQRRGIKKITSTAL
Description: as §3

STK4 = STK4 (Homo sapiens, UniProt Q13043); test: Enzyme selectivity panel; format: biochemical; conditions: 1 mM ATP
Chain of STK4 (Q13043 whole entry, species assumed): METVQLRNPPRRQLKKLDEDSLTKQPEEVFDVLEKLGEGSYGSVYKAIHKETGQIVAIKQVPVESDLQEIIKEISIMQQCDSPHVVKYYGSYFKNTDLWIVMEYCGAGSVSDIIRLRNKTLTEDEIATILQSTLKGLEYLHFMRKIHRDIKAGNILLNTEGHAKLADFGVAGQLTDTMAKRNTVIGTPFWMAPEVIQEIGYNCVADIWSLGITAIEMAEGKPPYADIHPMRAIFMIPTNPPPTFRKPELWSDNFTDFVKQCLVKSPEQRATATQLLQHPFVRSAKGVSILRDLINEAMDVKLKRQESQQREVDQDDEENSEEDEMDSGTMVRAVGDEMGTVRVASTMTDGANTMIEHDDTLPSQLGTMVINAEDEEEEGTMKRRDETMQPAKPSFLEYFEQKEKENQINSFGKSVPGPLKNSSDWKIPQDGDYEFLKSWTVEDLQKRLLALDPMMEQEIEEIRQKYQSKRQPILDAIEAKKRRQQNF
Description: as §3

SYK = SYK (Homo sapiens, UniProt P43405); test: Enzyme selectivity panel; format: biochemical; conditions: 1 mM ATP
Description: as §3

TGFBR1 = TGFBR1 (Homo sapiens, UniProt P36897); test: Enzyme selectivity panel; format: biochemical; conditions: 1 mM ATP
Chain of TGFBR1 (P36897 34-503, species assumed): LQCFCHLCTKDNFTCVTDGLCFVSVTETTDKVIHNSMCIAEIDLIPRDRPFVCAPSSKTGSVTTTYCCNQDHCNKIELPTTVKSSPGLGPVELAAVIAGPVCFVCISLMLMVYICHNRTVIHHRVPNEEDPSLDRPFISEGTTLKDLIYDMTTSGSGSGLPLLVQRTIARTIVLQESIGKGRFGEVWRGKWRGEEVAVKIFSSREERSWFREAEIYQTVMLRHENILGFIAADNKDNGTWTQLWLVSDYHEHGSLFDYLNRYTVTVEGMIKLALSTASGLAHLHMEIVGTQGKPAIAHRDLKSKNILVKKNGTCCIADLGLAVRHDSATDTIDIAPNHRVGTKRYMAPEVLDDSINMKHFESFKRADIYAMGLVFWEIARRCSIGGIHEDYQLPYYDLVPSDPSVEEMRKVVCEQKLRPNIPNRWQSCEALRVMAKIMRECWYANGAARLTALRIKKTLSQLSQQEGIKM
Description: as §3

ZAP70 = ZAP70 (Homo sapiens, UniProt P43403); test: Enzyme selectivity panel; format: biochemical; conditions: 1 mM ATP
Chain of ZAP70 (P43403 whole entry, species assumed): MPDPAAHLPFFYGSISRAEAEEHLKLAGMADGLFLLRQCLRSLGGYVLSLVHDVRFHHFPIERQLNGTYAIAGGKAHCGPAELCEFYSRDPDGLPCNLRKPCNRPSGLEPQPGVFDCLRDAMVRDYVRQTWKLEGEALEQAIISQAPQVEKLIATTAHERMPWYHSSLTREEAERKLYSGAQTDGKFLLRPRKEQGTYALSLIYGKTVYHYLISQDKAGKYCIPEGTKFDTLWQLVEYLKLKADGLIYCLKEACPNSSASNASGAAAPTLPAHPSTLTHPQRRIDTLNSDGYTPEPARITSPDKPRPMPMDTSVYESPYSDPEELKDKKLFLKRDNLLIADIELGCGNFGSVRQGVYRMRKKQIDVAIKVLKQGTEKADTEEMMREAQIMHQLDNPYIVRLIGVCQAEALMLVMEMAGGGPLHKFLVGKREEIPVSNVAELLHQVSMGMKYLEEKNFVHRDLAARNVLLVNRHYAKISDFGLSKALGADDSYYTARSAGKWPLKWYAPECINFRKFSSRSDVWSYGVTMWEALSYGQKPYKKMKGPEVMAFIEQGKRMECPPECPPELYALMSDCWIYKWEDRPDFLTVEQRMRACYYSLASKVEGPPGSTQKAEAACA
Description: as §3

[1] = tested on: VEGF-induced growth of human umbilical vein endothelial cells (HUVEC); test: HUVEC proliferation stimulated with VEGF; format: cell-based
From the text: S2 Figure. […] Directly. An assay was developed to evaluate the proliferation of human umbilical vein endothelial cells (HUVEC) when stimulated with basic FGF (b-FGF) or VEGF.

DMS-114 (lung cancer) = test: Cell viability assay (CellTiter-Glo); format: cell-based; conditions: Homo sapiens, FGFR1 amplification, 72 hours, read-out: Mean GI50 ± S.D.
[2] = tested on: KATO III (gastric cancer); test: Cell viability assay (CellTiter-Glo); format: cell-based; conditions: Homo sapiens, FGFR2 amplification, 72 hours, read-out: Mean GI50 ± S.D.
[3] = tested on: AN3CA (endometrial cancer); test: Cell viability assay (CellTiter-Glo); format: cell-based; conditions: Homo sapiens, AN3-CA; FGFR2 N310R/N549K mutations; 72 hours; read-out: Mean GI50 ± S.D.
OPM-2 (myeloma) = test: Cell viability assay (CellTiter-Glo); format: cell-based; conditions: Homo sapiens, IgH-FGFR3 translocation, 72 hours, read-out: Mean GI50 ± S.D.
KG1 = test: Cell viability assay (CellTiter-Glo); format: cell-based; conditions: Homo sapiens; KG1, parental line to KG1a
KMS12BM = test: Cell viability assay (CellTiter-Glo); format: cell-based; conditions: Homo sapiens, KMS-12-BM; Myeloma; lacking FGFR alterations
hERG potassium current = target: T3, hERG potassium current (Homo sapiens, UniProt Q12809); test: hERG potassium current (ChanTest); format: cell-based; conditions: estimated; precise IC50 not calculated due to compound insolubility; data provided by ChanTest; read-out: IC50 for the inhibitory effect on hERG potassium current
T3 construct: ChanTest Corporation, Cleveland, OH

Pharmacokinetic analyses [4] = format: in vivo, Sprague Dawley rats; conditions: male rat
Description: (§1) The i.v. formulation in rats was 5% dimethylacetamide (DMAC) and 25% sulfobutyl ether β-cyclodextrin in acidified saline (pH 3). The i.v. formulation in dogs and monkeys was 5% DMAC and 20% sulfobutyl ether β-cyclodextrin in saline. The oral formulation in all species was 5% DMAC in 0.5% methylcellulose aqueous solution. For rats, blood samples were collected at predose, 5 (i.v. dosing only), 15, and 30 minutes, and 1, 2, 4, 6, 8, and 24 hours. For dogs, blood samples were collected at predose, 2.5 and 5 (i.v. dosing only), 15, and 30 minutes, and 1, 2, 3, 4, 6, 8, 12, and 24 hours postdose. For monkeys, blood samples were collected at predose, 5 and 10 (i.v. dosing only), 15, and 30 minutes, and 1, 2, 3, 4, 6, 8, 12, 16, and 24 hours postdose. Collected blood samples were processed to extract plasma by centrifugation and stored at −20 °C until analysis.
(§2) The plasma was protein precipitated and the diluted supernatant was analyzed using LC/MS/MS. A standard curve was prepared in plasma from 1 to 5,000 nM and processed in the same manner as the samples. The pharmacokinetic parameters were determined using WinNonLin 6.3.

Pharmacokinetic analyses [5] = format: in vivo, cynomolgus monkeys; conditions: male monkey
Description: as §1, with “The” for “The i.v. formulation in rats was 5% dimethylacetamide (DMAC) and 25% sulfobutyl ether β-cyclodextrin in acidified saline (pH 3). The”
as §2

[6] = tested on: phospho-FGFR3 in RT-112 cells; conditions: proximity ligation assay
[7] = Sprague Dawley, plasma, oral 2 mg/kg
[8] = intravenous 1 mg/kg, % of hepatic blood flow

Chain of BRAF (P15056 whole entry, species assumed): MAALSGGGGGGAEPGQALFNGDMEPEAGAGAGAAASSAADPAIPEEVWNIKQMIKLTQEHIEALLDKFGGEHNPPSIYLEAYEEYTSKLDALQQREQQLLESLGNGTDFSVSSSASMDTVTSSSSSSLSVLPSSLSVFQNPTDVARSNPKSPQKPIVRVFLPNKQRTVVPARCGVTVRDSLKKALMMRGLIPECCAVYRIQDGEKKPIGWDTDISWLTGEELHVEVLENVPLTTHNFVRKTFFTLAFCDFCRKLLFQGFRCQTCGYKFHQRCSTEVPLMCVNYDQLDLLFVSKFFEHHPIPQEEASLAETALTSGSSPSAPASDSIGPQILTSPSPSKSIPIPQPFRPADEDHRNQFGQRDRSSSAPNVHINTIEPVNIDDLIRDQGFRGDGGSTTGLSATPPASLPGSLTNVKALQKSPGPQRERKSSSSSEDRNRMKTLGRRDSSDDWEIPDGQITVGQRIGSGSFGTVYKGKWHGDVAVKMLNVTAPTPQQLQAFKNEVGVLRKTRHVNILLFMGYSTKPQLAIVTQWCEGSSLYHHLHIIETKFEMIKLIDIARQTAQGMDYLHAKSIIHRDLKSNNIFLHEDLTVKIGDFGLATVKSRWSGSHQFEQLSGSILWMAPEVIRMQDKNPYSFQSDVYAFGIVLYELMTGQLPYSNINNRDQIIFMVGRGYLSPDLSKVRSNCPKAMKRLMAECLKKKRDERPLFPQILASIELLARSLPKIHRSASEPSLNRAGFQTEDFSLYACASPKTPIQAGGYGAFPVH
Chain of DYRK2 (Q92630 whole entry, species assumed): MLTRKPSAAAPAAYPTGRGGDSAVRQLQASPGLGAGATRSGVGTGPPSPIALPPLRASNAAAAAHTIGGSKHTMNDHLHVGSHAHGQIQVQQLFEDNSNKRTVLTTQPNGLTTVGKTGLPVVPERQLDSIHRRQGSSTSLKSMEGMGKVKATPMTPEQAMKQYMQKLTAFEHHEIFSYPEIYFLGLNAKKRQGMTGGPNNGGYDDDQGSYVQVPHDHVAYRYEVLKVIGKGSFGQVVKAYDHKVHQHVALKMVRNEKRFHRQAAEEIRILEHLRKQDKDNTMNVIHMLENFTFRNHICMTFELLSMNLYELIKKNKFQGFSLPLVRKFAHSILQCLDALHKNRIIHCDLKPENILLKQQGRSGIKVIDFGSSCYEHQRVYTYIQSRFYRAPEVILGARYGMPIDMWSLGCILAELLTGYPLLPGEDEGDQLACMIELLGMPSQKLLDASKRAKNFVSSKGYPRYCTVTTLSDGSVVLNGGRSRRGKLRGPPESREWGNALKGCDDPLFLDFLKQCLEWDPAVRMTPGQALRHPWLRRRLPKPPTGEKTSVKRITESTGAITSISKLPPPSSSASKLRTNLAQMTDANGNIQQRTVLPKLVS

SMILES: CCN1C(=O)N(c2c(F)c(OC)cc(OC)c2F)Cc2cnc3[nH]c(CN4CCOCC4)cc3c21 [INCB054828, pemigatinib]
- IC50 (BRAF): > 10 µM
- IC50 (DYRK2): > 10 µM
- IC50 (HIPK3): > 10 µM
- IC50 (LOK): > 10 µM
- IC50 (NLK): > 10 µM
- IC50 (PAK4): > 10 µM
- IC50 (PDGFR BETA): 1.79 µM
- IC50 (PIM2): > 10 µM
- IC50 (RSK2): > 10 µM
- IC50 (STK4): > 10 µM
- IC50 (SYK): > 10 µM
- IC50 (TGFBR1): > 10 µM
- IC50 (ZAP70): > 10 µM
- IC50 [1]: 0.801 µM
- GI50 (DMS-114 (lung cancer)): 0.027 µM
- GI50 [2]: 0.003 ± 0.001 µM
- GI50 [3]: 0.048 ± 0.028 µM
- GI50 (OPM-2 (myeloma)): 0.018 ± 0.009 µM
- GI50 (KG1): 0.001 µM
- GI50 (KMS12BM): 2.89 µM
- IC50 (hERG potassium current): > 8 µM
- clearance (Pharmacokinetic analyses [4]; Sprague Dawley, plasma, intravenous 1 mg/kg): 17.2 mL/min/kg
- Vd (Pharmacokinetic analyses [4]; Sprague Dawley, plasma, intravenous 1 mg/kg, read-out: Vss): 1.85 L/kg
- half-life (Pharmacokinetic analyses [4]; Sprague Dawley, plasma, intravenous 1 mg/kg, read-out: t½ (converted)): 4 h
- Cmax (Pharmacokinetic analyses [4]; [7]): 2260 nM
- bioavailability (Pharmacokinetic analyses [4]; [7]): > 100%
- Hepatic ER (Pharmacokinetic analyses [4]; [8]): 31%
- %F (Pharmacokinetic analyses [4]; oral 2 mg/kg): complete
- AUC (Pharmacokinetic analyses [4]; oral 2 mg/kg): 7.67 µM·h
- clearance (Pharmacokinetic analyses [5]; cynomolgus monkey, plasma, intravenous 1 mg/kg): 3.3 mL/min/kg
- Vd (Pharmacokinetic analyses [5]; cynomolgus monkey, plasma, intravenous 1 mg/kg, read-out: Vss): 0.584 L/kg
- half-life (Pharmacokinetic analyses [5]; cynomolgus monkey, plasma, intravenous 1 mg/kg, read-out: t½ (converted)): 10.3 h
- bioavailability (Pharmacokinetic analyses [5]; cynomolgus monkey, plasma, oral 2 mg/kg): 29%
- Hepatic ER (Pharmacokinetic analyses [5]; [8]): 8%
- AUC (Pharmacokinetic analyses [5]; oral 2 mg/kg): 6.19 µM·h
- potent inhibition of FGFR3 (phospho-FGFR3), concentration [6]: < 10 nM
